Data: patent US20060160070A1, “Association-based epitome design” (Microsoft Corporation, priority 2004, published 2006)

Key:
HLA A*0101 [1] = biological target: T1, HLA A*0101 (Homo sapiens, UniProt P04439, A114D/A174V/A182V/D101N/D185E/E176A/E190D/L180R/Q94H/R68K/S129P/T187R/V100A/V91M/W191G); assay: ITOPIA peptide binding assay; details: 1.11×10^−4M of peptide
T1 construct: purchased
Outline: (§1)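 Peptides are added at 1.11×10^−4M to wells carrying the immobilized HLA allele and bound under standardized optimal conditions. A control peptide at equal concentration shares each plate. Duplicate ELISA signals give binding relative to that positive control, in percent.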

HLA A*0201 [2] = biological target: T2, HLA A*0201 (Homo sapiens, UniProt P04439, D140Y/D185E/D98H/E176V/E277Q/G131W/G231S/I119V/I121R/I166T/I218V/L300P/L318F/N151K/N90K/P208A/P217A/Q86G/Q94H/R138H/R169H/T345S); assay: ITOPIA peptide binding assay; details: 1.11×10^−4M of peptide
Outline: as §1

HLA A*0301 [3] = biological target: T3, HLA A*0301 (Homo sapiens, UniProt P04439); assay: ITOPIA peptide binding assay; details: 1.11×10^−4M of peptide
T3 construct: purchased
Outline: as §1

HLA A*1101 [4] = biological target: T4, HLA A*1101 (Homo sapiens, UniProt P04439, A114D/D185E/E176A/F33Y/L180Q/S129P/T187R); assay: ITOPIA peptide binding assay; details: 1.11×10^−4M of peptide
T4 construct: purchased
Outline: as §1

HLA A*2402 [5] = biological target: T5, HLA A*2402 (Homo sapiens, UniProt P04439, D101N/D140Y/D185E/E176V/E190D/F33S/G103R/G107R/I119L/I121M/I306V/K335N/L105A/L180Q/L300P/N151K/N90K/Q86E/Q94H/R106L/R138H/R89G/T104I/T345S/V100E/W191G/Y123F); assay: ITOPIA peptide binding assay; details: 1.11×10^−4M of peptide
Outline: as §1

HLA B*0702 [6] = biological target: T6, HLA B*0702 (Homo sapiens, UniProt P01889); assay: ITOPIA peptide binding assay; details: 1.11×10^−4M of peptide
T6 construct: purchased
Outline: as §1

HLA B*0801 [7] = biological target: T7, HLA B*0801 (Homo sapiens, UniProt P01889, A93T/A95T/D138N/E176V/E187T/K202T/Q94N/R180D/S35A/V36M/Y33D/Y91F); assay: ITOPIA peptide binding assay; details: 1.11×10^−4M of peptide
T7 construct: purchased
Outline: as §1

HLA B*1501 [8] = biological target: T8, HLA B*1501 (Homo sapiens, UniProt P01889, A329T/A93T/A95T/C349S/D201E/D98Y/E187L/E204Q/E69M/E70A/K202T/N87E/Q94N/R155S/R180W/S121R/S35A/S48A/V306I/V36M/Y140S/Y91S); assay: ITOPIA peptide binding assay; details: 1.11×10^−4M of peptide
T8 construct: purchased
Outline: as §1

HLA A*0201 [9] = biological target: T2, HLA A*0201; assay: ITOPIA off-rate assay; type: binding; details: 37° C., one-phase exponential decay
HLA A*1101 [10] = biological target: T4, HLA A*1101; assay: ITOPIA off-rate assay; type: binding; details: 37° C., one-phase exponential decay
HLA A*0101 [11] = biological target: T1, HLA A*0101; assay: Multi-parametric analysis iScore; type: binding; set-up: scale not given here; details: index integrating t1/2 and ED50
Outline: (§2)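 Peptide half-life (t½) and ED50 values were measured, then merged by multi-parametric analysis into one index. The resulting iScore described each peptide's ability to form a stable reconstituted complex with MHC.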

HLA A*0201 [12] = biological target: T2, HLA A*0201; assay: Multi-parametric analysis iScore; type: binding; set-up: scale not given here; details: index integrating t1/2 and ED50
Outline: as §2

HLA A*0301 [13] = biological target: T3, HLA A*0301; assay: Multi-parametric analysis iScore; type: binding; set-up: scale not given here; details: index integrating t1/2 and ED50
Outline: as §2

HLA A*1101 [14] = biological target: T4, HLA A*1101; assay: Multi-parametric analysis iScore; type: binding; set-up: scale not given here; details: index integrating t1/2 and ED50
Outline: as §2

HLA A*2402 [15] = biological target: T5, HLA A*2402; assay: Multi-parametric analysis iScore; type: binding; set-up: scale not given here; details: index integrating t1/2 and ED50
Outline: as §2

HLA B*0702 [16] = biological target: T6, HLA B*0702; assay: Multi-parametric analysis iScore; type: binding; set-up: scale not given here; details: index integrating t1/2 and ED50
Outline: as §2

HLA B*0801 [17] = biological target: T7, HLA B*0801; assay: Multi-parametric analysis iScore; type: binding; set-up: scale not given here; details: index integrating t1/2 and ED50
Outline: as §2

HLA B*1501 [18] = biological target: T8, HLA B*1501; assay: Multi-parametric analysis iScore; type: binding; set-up: scale not given here; details: index integrating t1/2 and ED50
Outline: as §2

target cells = details: in vitro; compared with consensus epitope; cited from earlier work
HLA A*0301 [19] = biological target: T3, HLA A*0301; assay: ITOPIA off-rate assay; type: binding; details: 37° C., one-phase exponential decay
HLA B*0702 [20] = biological target: T6, HLA B*0702; assay: ITOPIA off-rate assay; type: binding; details: 37° C., one-phase exponential decay
HLA B*0801 [21] = biological target: T7, HLA B*0801; assay: ITOPIA off-rate assay; type: binding; details: 37° C., one-phase exponential decay
HLA B*1501 [22] = biological target: T8, HLA B*1501; assay: ITOPIA off-rate assay; type: binding; details: 37° C., one-phase exponential decay

Sequence | level of binding, percent of positive control peptide binding (HLA A*0101 [1]) | level of binding, percent of positive control peptide binding (HLA A*0201 [2]) | level of binding, percent of positive control peptide binding (HLA A*0301 [3]) | level of binding, percent of positive control peptide binding (HLA A*1101 [4]) | level of binding, percent of positive control peptide binding (HLA A*2402 [5]) | level of binding, percent of positive control peptide binding (HLA B*0702 [6]) | level of binding, percent of positive control peptide binding (HLA B*0801 [7]) | level of binding, percent of positive control peptide binding (HLA B*1501 [8]) | A*0201 t1/2 (HLA A*0201 [9]) [h] | A*1101 t1/2 (HLA A*1101 [10]) [h] | iScore (HLA A*0101 [11]) | iScore (HLA A*0201 [12]) | iScore (HLA A*0301 [13]) | iScore (HLA A*1101 [14]) | iScore (HLA A*2402 [15]) | iScore (HLA B*0702 [16]) | iScore (HLA B*0801 [17]) | iScore (HLA B*1501 [18]) | other results
KLAGRWPVT [compound 157] | 2% of positive control | 51% of positive control | 9% of positive control | 19% of positive control | 8% of positive control | 3% of positive control | 4% of positive control | 6% of positive control | 1.1 | 1.6 | 0 | 0.129 | 0 | 0.039 | 0 | 0 | 0 | 0 | 
TAFTIPST |  |  |  |  |  |  |  |  |  |  |  |  |  |  |  |  |  |  | increase in the peptide concentration required to sensitize target cells for 50% lysis (SD50) by CTLs (target cells): hundred-fold increase
KLAGRWPVK [compound 71] | 0% of positive control | 26% of positive control | 114% of positive control | 160% of positive control | 11% of positive control | 0% of positive control | 4% of positive control | 2% of positive control | 1.3 | 2.6 | 0 | 0.084 | 0.606 | 0.834 | 0 | 0 | 0 | 0 | A*0301 t1/2 (HLA A*0301 [19]): 4.6 h
RGRQKVVSL [compound 68] | 0% of positive control | 5% of positive control | 0% of positive control | 0% of positive control | 17% of positive control | 96% of positive control | 73% of positive control | 55% of positive control |  |  | 0 | 0 | 0 | 0 | 0 | 0.307 | 0.100 | 0.106 | B*0702 t1/2 (HLA B*0702 [20]): 1.1 h; B*0801 t1/2 (HLA B*0801 [21]): 1.2 h; B*1501 t1/2 (HLA B*1501 [22]): 3.5 h
